Measurements: US9132138B2, “Method for the treatment of multiple sclerosis” (CASI Pharmaceuticals, Inc., priority 2012, dated 2015)

Target: T1, GPER1 (Mus musculus, UniProt Q8BMP4)
T1 construct: Purified C57/BL6 CD4^+ T cells were preincubated with the GPER1 antagonist G15; endogenous in cells; host or cells: purified primary CD4+ T cells from C57/BL6 mice
T1 sequence (Q8BMP4 1-375): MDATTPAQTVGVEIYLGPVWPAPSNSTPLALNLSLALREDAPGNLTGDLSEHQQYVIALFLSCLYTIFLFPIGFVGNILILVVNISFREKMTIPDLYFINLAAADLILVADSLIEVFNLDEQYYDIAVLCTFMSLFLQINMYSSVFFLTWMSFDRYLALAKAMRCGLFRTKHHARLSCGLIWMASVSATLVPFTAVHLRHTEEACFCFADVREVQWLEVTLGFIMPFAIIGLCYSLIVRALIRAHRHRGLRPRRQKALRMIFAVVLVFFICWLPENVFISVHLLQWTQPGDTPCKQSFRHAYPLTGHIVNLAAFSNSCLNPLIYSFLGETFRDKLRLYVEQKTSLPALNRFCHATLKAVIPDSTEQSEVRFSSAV
Assay: GPER1 dependence: CD25/CD69 on CD4+ T cells with G15 or G1
Assay type: cell-based, C57/BL6 mice
Conditions: for cell viability: at 6 hours
Method: FIGS. 6A and 6B show purified CD4^+ T cells that were pretreated with 2-50 μM 2ME2 and/or the GPER1 antagonist G15, and subsequently stimulated with anti-CD3/28 for 6 hours. Activation of CD4^+ T cells was assessed by CD25 and CD69 upregulation, measured by flow cytometry. US, unstimulated. Data is shown as mean±SD for triplicate determinations, and is representative of two separate experiments.
Purified C57/BL6 CD4^+ T cells were preincubated with the GPER1 antagonist G15 (100 nM, Tocris) and 2ME2 (0-50 μM), or the GPER1 agonist G1 (1-100 nM, Tocris) for 30 minutes, and activated with plate bound anti-CD3 plus soluble anti-CD28. 6 hours later, cells were harvested, stained with anti-CD4 and anti-CD25. CD25 expression was monitored on a HTS FACSCanto II (BD) and analyzed with FloJo (Treestar Inc).

[1] = G15 100 nM with 2ME2, anti-CD3/28, 6 hours

SMILES | reversal of the inhibitory effect of 2ME2 on CD25 expression [1] | reversal of the inhibitory effect of 2ME2 on CD69 expression [1] | cell viability | CD25 expression on activated T cells (G1 1-100 nM, 6 hours) | CD69 expression on activated T cells (G1 1-100 nM, 6 hours)
Brc1cc2c(cc1[C@@H]1Nc3ccccc3[C@@H]3C=CC[C@@H]31)OCO2 [G15] | failed to reverse | failed to reverse | Neither 2ME2, G1 nor G15 affected cell viability |  | 
CC(=O)c1ccc2c(c1)C1C=CCC1C(c1cc3c(cc1Br)OCO3)N2 (stereo not drawn) [G1] |  |  | Neither 2ME2, G1 nor G15 affected cell viability | no effect | no effect
